According to patent publication US20100069409A1, “"NOVEL COMPOUNDS"” (GLAXO GROUP LIMITED, priority 2006, published 2010):

SMILES | melting point [°C]
Cc1c(F)cc(C(=O)NC2CC2)cc1-c1nc(NC(CO)CO)nc2c1ccc(=O)n2-c1c(F)cccc1F [Example 49, N-cyclopropyl-3-(8-(2,6-difluorophenyl)-2-{[2-hydroxy-1-(hydroxymethyl)ethyl]amino}-7-oxo-7,8-dihydropyrido[2,3-d]pyrimidin-4-yl)-5-fluoro-4-methylbenzamide] | 214.2 to 217.5
CSc1nc(-c2cc(C(=O)N(C)C)ccc2C)c2c(n1)N(c1c(F)cccc1F)C(=O)NC2 [Example 73, 3-[8-(2,6-difluorophenyl)-2-(methylthio)-7-oxo-5,6,7,8-tetrahydropyrimido[4,5-d]pyrimidin-4-yl]-N,N,4-trimethylbenzamide] | 144 to 147
